Experimental data published in US7868177B2, “Multi-cyclic compounds and method of use” (Amgen Inc., priority 2006, dated 2011).
pIC50: −log10 of the molar value.

Molecular target: T1, AuroraA-TPX2 (Homo sapiens, UniProt O14965)
T1 construct: 20 μL of AuroraA-TPX2 KD GST for a final volume of 41 μL; GST
T1 sequence (O14965 133-383 limits assumed): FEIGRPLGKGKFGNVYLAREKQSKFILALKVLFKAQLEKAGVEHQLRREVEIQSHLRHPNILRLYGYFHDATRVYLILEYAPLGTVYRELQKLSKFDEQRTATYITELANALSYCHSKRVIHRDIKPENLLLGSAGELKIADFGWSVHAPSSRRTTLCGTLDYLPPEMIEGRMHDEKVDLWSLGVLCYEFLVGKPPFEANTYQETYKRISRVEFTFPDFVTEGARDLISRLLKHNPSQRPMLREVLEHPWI
T1 sequence (Q9ULW0 1-43 partner limits assumed): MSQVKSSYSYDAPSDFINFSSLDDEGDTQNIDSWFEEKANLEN
Assay: AuroraA-TPX2 HTRF kinase assay (Aurora kinase A HTRF assay)
Format: biochemical
Experimental: AuroraA-TPX2-Homogeneous Time Resolved Fluorescent (HTRF) Kinase Assay:
The AuroraA HTRF assay begins with AuroraA in the presence of ATP phosphorylating the biotinylated peptide PLK. The reaction incubates for about 120 min. Detection reagents are added to quench the reaction. These agents stop the reaction by diluting out the enzyme and chelating the metals due to the presence of EDTA. After addition, the assay is incubated overnight to allow the detection reagents to equilibrate.
The AuroraA HTRF assay comprises 1 μL of compound in 100% DMSO, 20 μL of ATP and biotinylated PLK, and 20 μL of AuroraA-TPX2 KD GST for a final volume of 41 μL. The final concentration of PLK is about 1 μM. […] Buffer conditions are as follows: 60 mM HEPES pH 7.5, 25 mM NaCl, 10 mM MgCl, 2 mM DTT, 0.05% BSA.
The assay is quenched and stopped with 160 μL of detection reagent. Detection reagents are as follows: Buffer made of 50 mM Tris, pH 7.5, 100 mM NaCl, 3 mM EDTA, 0.05% BSA, 0.1% Tween20. Added to this buffer prior to reading is Steptavidin allophycocyanin (SA-APC) at a final conc in the assay of 0.0005 mg/mL, and europilated anti-phosphoPLK Ab (Eu-anti-PLK) at a final conc of 0.02 nM.
The assay plate is read in either a Discovery or a RubyStar. The eu-anti-PLK is excited at 320 nm and emits at 615 nm to excite the SA-APC which in turn emits at 655 nm. The ratio of SA-APC at 655 nm (excited due to close proximity to the Eu-anti-PLK because of phosphorylation of the peptide) to free Eu-anti-PLK at 615 nm will give substrate phosphorylation.

pIC50, ≥ 5.30:
CN1CCCC1CCNc1nccc(-c2cccnc2Oc2ccc(Nc3nc4ccccc4[nH]3)c3ccccc23)n1 (stereo not drawn) [Example 46, N-(4-((3-(2-((2-(1-methyl-2-pyrrolidinyl)ethyl)amino)-4-pyrimidinyl)-2-pyridinyl)oxy)-1-naphthalenyl)-1H-benzimidazol-2-amine]
Cc1ccc2nc(Nc3ccc(Oc4ncccc4-c4ccncn4)c(C)c3)oc2c1 [Example 48, 6-methyl-N-(3-methyl-4-((3-(4-pyrimidinyl)-2-pyridinyl)oxy)phenyl)-1,3-benzoxazol-2-amine]
Cn1cc(-c2ccccc2)nc1Nc1ccc(Oc2ncccc2-c2ccnc(N)n2)cc1 [Example 115, 4-(2-((4-((1-methyl-4-phenyl-1H-imidazol-2-yl)amino)phenyl)oxy)-3-pyridinyl)-2-pyrimidinamine]
